From the NIST ThermoML archive (doi:10.1021/je101304x)
Numbers after ± are expanded uncertainties.

Conditions: Liquid, Ebulliometric method (Recirculating still)

**Q.** For `c1ccccc1` [benzene], which “vapor or sublimation pressure” value (403.15 K) is on record?
**A.** 379.3 ± 4.1 kPa

**Q.** What does the source list for `C=C(C)C(C)C` [2,3-dimethyl-1-butene]?
**A.** vapor or sublimation pressure (341.87 K): 153.7 ± 1.3 kPa; vapor or sublimation pressure (343.06 K): 158.1 ± 1.5 kPa; vapor or sublimation pressure (343.95 K): 162.3 ± 1.3 kPa; vapor or sublimation pressure (345.83 K): 171.3 ± 1.3 kPa; vapor or sublimation pressure (347.12 K): 178.2 ± 1.4 kPa; vapor or sublimation pressure (348.71 K): 186.4 ± 1.4 kPa; vapor or sublimation pressure (350.49 K): 196.3 ± 1.4 kPa; vapor or sublimation pressure (352.78 K): 208.6 ± 1.4 kPa; vapor or sublimation pressure (353.27 K): 211.3 ± 1.7 kPa; vapor or sublimation pressure (354.06 K): 216.3 ± 1.5 kPa; vapor or sublimation pressure (356.15 K): 228.9 ± 1.5 kPa; vapor or sublimation pressure (358.73 K): 244.9 ± 1.5 kPa; vapor or sublimation pressure (361.3 K): 262.1 ± 1.6 kPa; vapor or sublimation pressure (362.89 K): 273.7 ± 1.7 kPa; vapor or sublimation pressure (363.19 K): 275.3 ± 1.9 kPa; vapor or sublimation pressure (364.38 K): 284.9 ± 1.6 kPa; vapor or sublimation pressure (365.57 K): 292.7 ± 1.7 kPa; vapor or sublimation pressure (366.96 K): 303.8 ± 1.8 kPa; vapor or sublimation pressure (368.24 K): 313.9 ± 1.7 kPa; vapor or sublimation pressure (369.04 K): 319.7 ± 1.7 kPa; vapor or sublimation pressure (370.13 K): 328.6 ± 1.8 kPa; vapor or sublimation pressure (371.12 K): 336.4 ± 1.8 kPa; vapor or sublimation pressure (372.21 K): 346.1 ± 1.9 kPa; vapor or sublimation pressure (372.9 K): 351.5 ± 2.2 kPa; vapor or sublimation pressure (373.7 K): 358.8 ± 1.9 kPa; vapor or sublimation pressure (374.59 K): 366.7 ± 1.9 kPa; vapor or sublimation pressure (375.19 K): 372.1 ± 1.9 kPa; vapor or sublimation pressure (375.78 K): 377.4 ± 1.9 kPa; vapor or sublimation pressure (376.87 K): 386.8 ± 1.9 kPa; vapor or sublimation pressure (377.37 K): 391.7 ± 2 kPa

**Q.** With `C1CCCCC1` [cyclohexane] as the compound, how does the “vapor or sublimation pressure” value (403.15 K) read?
**A.** 362.8 ± 3.9 kPa

**Q.** Which “vapor or sublimation pressure” value (333.42 K) does the source give for `CO` [methanol] here?
**A.** 85.4 ± 1.2 kPa

**Q.** And the “vapor or sublimation pressure” value (334.56 K)?
**A.** 89.5 ± 1.2 kPa

**Q.** What about the “vapor or sublimation pressure” value (337.65 K) of the same compound?
**A.** 101.3 ± 1.2 kPa

**Q.** What about the “vapor or sublimation pressure” value (342.17 K) of the same compound?
**A.** 120.9 ± 1.3 kPa

**Q.** What about the “vapor or sublimation pressure” value (343.06 K) of the same compound?
**A.** 124.8 ± 1.5 kPa

**Q.** And the “vapor or sublimation pressure” value (346.64 K)?
**A.** 142.6 ± 1.4 kPa

**Q.** What about the “vapor or sublimation pressure” value (350.25 K) of the same compound?
**A.** 163.2 ± 1.5 kPa

**Q.** And the “vapor or sublimation pressure” value (353.17 K)?
**A.** 181 ± 1.5 kPa

**Q.** What about the “vapor or sublimation pressure” value (353.27 K) of the same compound?
**A.** 181.7 ± 1.7 kPa

**Q.** And the “vapor or sublimation pressure” value (356.35 K)?
**A.** 202.7 ± 1.6 kPa

**Q.** What about the “vapor or sublimation pressure” value (358.91 K) of the same compound?
**A.** 221.3 ± 1.7 kPa

**Q.** What about the “vapor or sublimation pressure” value (361.45 K) of the same compound?
**A.** 241.4 ± 1.8 kPa

**Q.** What about the “vapor or sublimation pressure” value (363.19 K) of the same compound?
**A.** 255.9 ± 2.1 kPa

**Q.** And the “vapor or sublimation pressure” value (363.85 K)?
**A.** 261.6 ± 1.9 kPa

**Q.** What about the “vapor or sublimation pressure” value (366.88 K) of the same compound?
**A.** 288.9 ± 2 kPa

**Q.** What about the “vapor or sublimation pressure” value (370.13 K) of the same compound?
**A.** 321.3 ± 2.1 kPa

**Q.** What about the “vapor or sublimation pressure” value (372.04 K) of the same compound?
**A.** 341.2 ± 2.3 kPa

**Q.** What about the “vapor or sublimation pressure” value (372.9 K) of the same compound?
**A.** 350.9 ± 2.4 kPa

**Q.** What about the “vapor or sublimation pressure” value (375.89 K) of the same compound?
**A.** 385.4 ± 2.3 kPa
